Consider three molecules from paper PMC5431889, “Stapled BIG3 helical peptide ERAP potentiates anti-tumour activity for breast cancer therapeutics” (Scientific Reports, 2017).

For data set [1], the system named is MCF-7 cells. The data set can be described thus: Cell cycle assay by flow cytometry (propidium iodide). The settings on record: 10 nM E2, 10 μM stERAP-6, 1 μM tamoxifen. It counts as cell-based, human. As to the method:
Cells were fixed in cold 70% ethanol, incubated with 20 µg mL^−1 propidium iodide (Sigma) and 1 mg mL^−1 ribonuclease A (Sigma), and analysed by flow cytometry using a FACSCalibur with CellQuest software (BD).
(Flow cytometry measures light scatter and fluorescence of single cells or particles in a stream.)

In data set [2] the test system is MCF-7 cells. In kind it is cell-based, human. The note with it: 96 h. From the text:
After […] ERAP). Microarray analysis. […]

Data set [3] is described as follows: Circular dichroism, α-helical content. The settings on record: CD 185-265 nm, 25 °C, 50 μg mL−1 in 10 mM sodium phosphate buffer pH 7.0. In kind it is physicochemical. As to the method: CD spectrum in the range of 185 to 265 nm was recorded at 25 °C in a 2 mm-path quartz cuvette. Protein concentration was 50 μg mL^−1 in 10 mM sodium phosphate buffer (pH 7.0). Molar ellipticity [θ] was calculated.
On the technique in general: Circular dichroism is widely used to follow secondary structure.

Data set [4] deals with KPL-3C orthotropic breast cancer xenografts. The data set can be described thus: In vivo tumour growth inhibition, KPL-3C orthotopic xenografts. Also on record: species or system mice. The note with it: intraperitoneal, E2 6 μg per day, n = 5. As to the method:
KPL-3C cell suspensions (1 × 10^7 cells per mouse) were mixed with an equal volume of Matrigel (Corning) and injected (200 μL total) into the mammary fat pads of 6-week-old female BALB/c nude mice (Charles River Laboratories). The mice were housed in a pathogen-free isolation facility with a 12 h light/dark cycle and were fed rodent chow and water ad libitum. The tumours developed over a period of a few days, reaching sizes of approximately 100 mm^3 [calculated as 1/2 × (width × length^2)], upon injection of 6 μg per day of E2 solution to the neck skin. For intraperitoneal administration, the mice were randomized into 10 treatment groups (five animals per group): (1) no treatment; (2) 6 μg per day E2; (3) E2 + 1.4 mg kg^−1 day^−1 ERAP daily; (4) E2 + 1.4 mg kg^−1 day^−1 ERAP every 4 days; (5) E2 + 14 mg kg^−1 day^−1 ERAP daily; (6) E2 + 14 mg kg^−1 day^−1 ERAP every 4 days; (7) E2 + 1.4 mg kg^−1 day^−1 stERAP-6 daily; (8) E2 + 1.4 mg kg^−1 day^−1 stERAP-6 every 4 days; (9) E2 + 14 mg kg^−1 day^−1 stERAP-6 daily; and 10() E2 + 14 mg kg^−1 day^−1 stERAP-6 every 4 days. For intravenous administration, the mice were randomized into 10 treatment groups (five animals per group): (1) no treatment; (2) 6 μg per day E2; (3) E2 + 0.1 mg kg^−1 day^−1 stERAP-6 daily; (4) E2 + 1 mg kg^−1 day^−1 stERAP-6 daily; (5) E2 + 10 mg kg^−1 day^−1 stERAP-6 daily; (6) E2 + 0.1 mg kg^−1 day^−1 stERAP-6 weekly; (7) E2 + 1 mg kg^−1 day^−1 stERAP-6 weekly; (8) E2 + 10 mg kg^−1 day^−1 stERAP-6 weekly; (9) E2 + 1 mg kg^−1 day^−1 alanine-mutant stERAP-6 daily; and (10) E2 + 10 mg kg^−1 day^−1 alanine-mutant stERAP-6 daily. E2 was delivered via the application of a solution to the neck skin as previously noted.
The tumour volume was measured with calipers, after which time the mice were sacrificed and tumours excised. TGI was calculated according to the formula: [1 − (T − T0)/(C − C0)] × 100, where T and T0 are the mean tumour volumes at day 28 or 35 and day 1, respectively, for the experimental group, and C and C0 are those for the E2-treated group. The organs (heart, lung, liver, kidney, pancreas, and brain) were also immediately removed. A portion of each tissue was fixed in 10% neutral formalin for histological examination, while the remaining tissue sample was frozen and preserved at −80 °C for subsequent western blot analysis. All the experiments were performed in accordance with the guidelines of the animal care and use facility at Tokushima University.

Data set [5] concerns BIG3-PHB2 complex and ERα signalling in tumours. Kind of data set: Co-immunoprecipitation, RT-PCR and immunoblot analysis of excised KPL-3C tumours. It counts as in vivo, mice. As to the method:
Immunoblot analyses were performed as described previously. After SDS-PAGE, the membranes were blocked with 4% BlockAce solution (Dainippon Pharmaceutical) for 3 h and then incubated with antibodies against the following proteins: BIG3 (1:1,000)[10]; PHB2 (1:1,000, Abcam); Akt (1:1,000), phospho-Akt (S473) (587F11, 1:1,000); p44/42 MAPK (1:1,000), phospho-p44/42 MAPK (T202/Y204) (1:1,000); mTOR (1:1,000); phospho-mTOR (S2448) (1:1,000); S6K (1:1,000); phopho-S6K (T389) (1:1,000); α/β-tubulin (1:1,000) (Cell Signalling Technology); and LMNB1 (1:100, Sigma). After incubation with an HRP-conjugated secondary antibody (anti-mouse IgG-HRP, 1:5,000; anti-rat IgG-HRP; 1:5,000; or anti-rabbit IgG-HRP, 1:1,000; Santa Cruz Biotechnology) for 1 h, the blots were developed with an enhanced chemiluminescence (ECL) system (GE Healthcare) and scanned using an Image Reader LAS-3000 mini (Fujifilm). All the experiments were performed in triplicate at a minimum. Full-length images of immunoblots are shown in Supplementary Fig. S5. […]
The expression of the ERα target genes (TFF1 and CCND1) was evaluated by real-time RT-PCR as described previously. Each sample was normalized to the β 2-MG mRNA content, and the results were expressed as the fold increase over untreated cells (set at 1.0). […]
The tumour volume was measured with calipers, after which time the mice were sacrificed and tumours excised. […]
(In general: Immunoblotting shows a protein as a band on a membrane.)

Data set [6] deals with MCF-7 cells. The settings on record: E2-dependent breast cancer cell growth; cited from earlier work. As to the method: We previously developed a dominant-negative peptide, ER α activity-regulator synthetic peptide (ERAP), which specifically disrupts the BIG3-PHB2 interaction and inhibits multiple ERα-signalling pathways driving breast cancer cell growth by reactivating tumour-suppressive activity of PHB2[10]. […] However, its inhibitory effect was only maintained for 24 h, most likely due to its high susceptibility to proteolytic degradation.

In a further data set the test system is TAM-R MCF-7 cells. Kind of data set: MTT assay, tamoxifen-resistant (TAM-R) MCF-7 cell growth. The note with it: 10 nM E2 and 1 μM tamoxifen, single treatment at 0 h, up to 96 h; three independent experiments. It counts as cell-based, human.
The target in data set [7] is T1, His-tagged recombinant PHB2 (UniProt Q99623 1-299).
T1 construct: PHB2 (prohibitin 2), recombinant, His-tagged; also called His-PHB2; source: recombinant
T1 sequence (Q99623 whole entry): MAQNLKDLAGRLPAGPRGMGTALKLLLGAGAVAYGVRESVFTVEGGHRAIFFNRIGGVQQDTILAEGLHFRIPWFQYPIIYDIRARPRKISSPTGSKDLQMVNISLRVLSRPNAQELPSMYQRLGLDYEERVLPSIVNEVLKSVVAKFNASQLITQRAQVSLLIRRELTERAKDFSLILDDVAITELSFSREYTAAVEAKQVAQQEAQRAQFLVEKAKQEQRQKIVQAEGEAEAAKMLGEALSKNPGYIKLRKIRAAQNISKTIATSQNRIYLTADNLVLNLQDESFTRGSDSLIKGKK
Kind of data set: SPR; Biacore 3000; recombinant PHB2 bound to a CM5 sensor chip, peptides as analytes at the indicated concentrations; BIAevaluation software. The settings on record: both partners purified.

A further data set deals with prohibitin 2 (human (endogenous in MCF-7 and KPL-3C), UniProt Q99623 1-299). The data set can be described thus: cell-based or functional assay.
Chain of prohibitin 2 (Q99623 whole entry): as above

Where a SMILES comes first, the peptide text is derived from it.

By IC50 is commonly meant the point on the concentration scale where inhibition reaches its midpoint. Low readings indicate higher potency, high ones lower potency. What is called Kd is the constant that tells how readily two partners part at equilibrium.

Protocol for TAM-R MCF-7 cells: (a) MTT assays evaluating the inhibitory effect of unstapled, original ERAP (left) and stERAP-6 (right) on the growth of tamoxifen-resistant (TAM-R) MCF-7 cells. TAM-R MCF-7 cells were treated with unstapled original ERAP or stERAP-6 in the presence of 10 nM E2 and 1 μM tamoxifen (TAM) at 0 h. The data represent the mean ± s.d. of three independent experiments.

`CC/C(=C(\c1ccccc1)c1ccc(OCCN(C)C)cc1)c1ccccc1` [tamoxifen]: the “apoptotic (sub-G1) cell population” value in the data set on MCF-7 cells [1] amounted to 7.44%.

With `CSCC[C@H](NC(=O)[C@H](CCC(N)=O)NC(=O)CNC(=O)CNC(=O)CNC(=O)[C@H](CCCNC(=N)N)NC(=O)[C@H](CCCNC(=N)N)NC(=O)[C@H](CCCNC(=N)N)NC(=O)[C@H](CCCNC(=N)N)NC(=O)[C@H](CCCNC(=N)N)NC(=O)[C@H](CCCNC(=N)N)NC(=O)[C@H](CCCNC(=N)N)NC(=O)[C@H](CCCNC(=N)N)NC(=O)[C@H](CCCNC(=N)N)NC(=O)[C@H](CCCNC(=N)N)NC(=O)[C@@H](N)CCCNC(=N)N)C(=O)N[C@@H](CC(C)C)C(=O)N[C@@H](CO)C(=O)N[C@@H](CC(=O)O)C(=O)N[C@@H](CC(C)C)C(=O)N[C@H](C(=O)N[C@@H](CC(C)C)C(=O)N[C@@H](CCC(N)=O)C(=O)N[C@@H](CC(C)C)C(=O)N[C@@H](CCCNC(=N)N)C(=O)N[C@@H](CCC(N)=O)C(=O)N[C@@H](CCCNC(=N)N)C(=O)O)[C@@H](C)O` [ERAP] (H-RRRRRRRRRRRGGGQMLSDLTLQLRQR-OH; N-terminus and C-terminus assumed), in the data set on MCF-7 cells [2], half-maximal inhibition (IC50) was put at 7.97 µM. Besides, the α-helical content in data set [3] is reported as 21.4%. In addition, the “TGI on day 28” value in data set [4] (1.4 mg kg−1 every 4 days) stood at 36.9%; in [4] (1.4 mg kg−1 once a day for 28 days) it was 94.2%; in data set [4] (14 mg kg−1 every 4 days), 40.3%; in data set [4] (14 mg kg−1 once a day for 28 days), 94.5%. In addition, the “E2-induced expression of TFF1 and CCND1 and phosphorylation levels of Akt and MAPK in tumours” value in data set [5] (intraperitoneal treatment every 4 days for 28 days) was “did not”. In addition, in [5] (intraperitoneal treatment every 4 days, co-immunoprecipitation), the “inhibition of endogenous BIG3-PHB2 complex formation in tumours” value is “but not with unstapled original ERAP”. For the same molecule, in the data set with MCF-7 cells [6], the “duration of inhibitory effect” value is on record as 24 h. Also, the “inhibition of growth of TAM-R MCF-7 cells” value in the data set on TAM-R MCF-7 cells is on record as “reduced after 24 h treatment”.

B1: ERα activity-regulator synthetic peptide (native ERAP; 11R-GGG-QMLSDLTLQLRQR) (peptide)
peptide: RRRRRRRRRRRGGGQMLSDLTLQLRQR
notes: membrane-permeable polyarginine (11R) and GGG linker, printed as 11R-GGG; also called unstapled original ERAP; dominant-negative peptide; source: synthetic peptide
Take B1: the Kd in data set [7] is 12.8 µM. For the same molecule, the “IC50 of E2-dependent MCF-7 cell growth at 96 h after a single treatment (MTT); the peptide blocks BIG3-PHB2” value in the data set with prohibitin 2 is 7.97 µM.
